The values below come from patent US20230139883A1, “Peptides for Inducing Differentiation” (Shimadzu Corporation, priority 2020, published 2023).

This assay concerns FGFR3. Put plainly: Phage display selection against FGFR3 with Miseq analysis of the bound phages. The format is binding. Particulars: for 1 nM Num. of reads: phage library after panning Round 4, bound to 1 nM FGFR3; for 10 nM Num. of reads: phage library after panning Round 4, bound to 10 nM FGFR3; for 100 nM Num. of reads: phage library after panning Round 4, bound to 100 nM FGFR3; for 1 nM Ranking / 10 nM Ranking / 100 nM Ranking: rank by number of reads; for 1 nM Ranking: 1 nM FGFR3; for 10 nM Ranking: 10 nM FGFR3; for 100 nM Ranking: 100 nM FGFR3. The protocol:
The collected phage library was mixed with 100 nM of FGFR3 solution and allowed to react overnight at 4° C. (Table 9: Panning Round 1). After the reaction, the binding phages were captured by magnetic beads modified with protein A, and washed three times with PBS-T, followed by eluting the bound phages with Gly-HCl (pH 2.0). After neutralizing with 2M Tris, the pages were infected to E. coli (TG1 strain). After 4 hours of incubation, helper phages were added, and the E. coli (TG1 strain) were allowed to produce phages overnight. Next, phage solution was prepared from the culture supernatant. The prepared phage solution was mixed with FGFR3 solution and allowed to react overnight at 4° C. (Table 9: Panning Round 2). After the reaction, the bound phages were eluted. Phage solution prepared in the same way was mixed with FGFR3 solution and allowed to react at 4° C. for 1 hour (Table 9: Panning Round 3). After the reaction, the bound phages were eluted. This operation was further repeated, and after Panning Round 4, the bound phages were eluted. Note that as the rounds proceeded, the number of washes with PBS-T was increased. (Table 9). The titer of the Output phage in each round was also determined. The titer of phage was determined from the number of colonies obtained by incubating the E. coli TG1 strain contacted with the phage at 37° C. overnight. The phage library eluted after panning of Example 7 (Table 9: Input phage (Round 4)) was subjected to Human IgG Fc-immobilized plate, and negative selection was performed by collecting unbound phages. The phage library was then acted to FGFR3 prepared to concentrations of 100 nM, 10 nM, and 1 nM. Bound phages were then collected. The genomic DNA of the collected phages was extracted, samples were prepared according to Illumina's protocol for Miseq, and a comprehensive analysis of the phage genomic DNA was performed. Among the sequences obtained, 20 sequences high incidence rates were selected (Table 11). The yeast cells acquired in the screening of Example 8 were seeded onto SDCAA agar plates and cultured. Fourteen single colonies formed on the agar plates were randomly selected, and for each clone, the peptide DNA sequence incorporated into the yeast expression plasmid was analyzed using the Sanger method (Table 12).

In the case of “CAAELAALEAELAALEGASTPTLESRGKLGSLIFKLRQLKVAC [F3-100n50]”, the “1 nM Num. of reads” value amounted to 1149, the “10 nM Num. of reads” value stood at 820, the “100 nM Num. of reads” value came out at 1121 and the “1 nM Ranking” value was 14. Further, the “10 nM Ranking” value is recorded as 15 and the “100 nM Ranking” value is reported as 14.

“CAAELAALEAELAALEGEGMSTLNRQGKLSVLKSKLLWLKHAC [F3-100n228]”: the “1 nM Num. of reads” value is 2006, the “10 nM Num. of reads” value turned out to be 1447, the “100 nM Num. of reads” value came out at 1753 and the “1 nM Ranking” value was 5. The “10 nM Ranking” value was determined as 6 and the “100 nM Ranking” value worked out at 7.

For “CAAELAALEAELAALEGENVYTLGGLGKLMLLKYKLRELKGAC [F3-100n458]”, the “1 nM Num. of reads” value worked out at 1304, the “10 nM Num. of reads” value was 789, the “100 nM Num. of reads” value is reported as 1023 and the “1 nM Ranking” value worked out at 10. Moreover, the “10 nM Ranking” value was determined as 17 and the “100 nM Ranking” value came out at 20.

Consider “CAAELAALEAELAALEGETNMTVLMTGKLLVLKHKLEHLKWAC [F3-100n386]”, for which the “1 nM Num. of reads” value worked out at 1216, the “10 nM Num. of reads” value stood at 781, the “100 nM Num. of reads” value amounted to 1028 and the “1 nM Ranking” value was found to be 13. In addition, the “10 nM Ranking” value was determined as 18 and the “100 nM Ranking” value came out at 19.

Consider “CAAELAALEAELAALEGEVNMTRARAGKLLVLKVKLHGLKQAC [F3-100n504]”, for which the “1 nM Num. of reads” value was found to be 1062, the “10 nM Num. of reads” value amounted to 741, the “100 nM Num. of reads” value was 1006 and the “1 nM Ranking” value stood at 18. Also, the “10 nM Ranking” value is recorded as 21 and the “100 nM Ranking” value is listed as 21.

“CAAELAALEAELAALEGGAFLTVGRAGKLMMLKQKLVRLKCAC [F3-100n117]”: the “1 nM Num. of reads” value is 1355, the “10 nM Num. of reads” value is recorded as 948, the “100 nM Num. of reads” value was 1188 and the “1 nM Ranking” value was found to be 9. Moreover, the “10 nM Ranking” value is listed as 9 and the “100 nM Ranking” value is 12.

As for “CAAELAALEAELAALEGGAPVTIMGVGKLMVLKEKLRNLKDAC [F3-100n16]”, the “1 nM Num. of reads” value is recorded as 1095, the “10 nM Num. of reads” value was 647, the “100 nM Num. of reads” value is recorded as 775 and the “1 nM Ranking” value is listed as 16. Further, the “10 nM Ranking” value was 26 and the “100 nM Ranking” value is recorded as 33.

In the case of “CAAELAALEAELAALEGGRDRTLELSGKLLVLKSKLHWLKHAC [F3-100n251]”, the “1 nM Num. of reads” value is reported as 3203, the “10 nM Num. of reads” value was 2387, the “100 nM Num. of reads” value stood at 3153 and the “1 nM Ranking” value is 2. The “10 nM Ranking” value was determined as 1 and the “100 nM Ranking” value was 2.

On to “CAAELAALEAELAALEGGRTPVVTTMGKLMGLKLKLQQLKRAC [F3-100n322]”, for which the “1 nM Num. of reads” value is reported as 1234, the “10 nM Num. of reads” value is reported as 813, the “100 nM Num. of reads” value is listed as 1061 and the “1 nM Ranking” value is recorded as 12. Moreover, the “10 nM Ranking” value is listed as 16 and the “100 nM Ranking” value is 18.

“CAAELAALEAELAALEGKDFRTIELVGKLVLLKYKLNNLKEAC [F3-100n548]”: the “1 nM Num. of reads” value came to 1248, the “10 nM Num. of reads” value turned out to be 873, the “100 nM Num. of reads” value amounted to 1088 and the “1 nM Ranking” value is on record as 11. Moreover, the “10 nM Ranking” value is 13 and the “100 nM Ranking” value amounted to 17.

As for “CAAELAALEAELAALEGKEHPTLRTSGKLLHLKLKLHELKRAC [F3-100n131]”, the “1 nM Num. of reads” value is listed as 2801, the “10 nM Num. of reads” value is given as 2079, the “100 nM Num. of reads” value turned out to be 2648 and the “1 nM Ranking” value came to 3. Moreover, the “10 nM Ranking” value was 4 and the “100 nM Ranking” value is given as 3.
